Test results published in PMC7700423, “Differential Effects of 1α,25-Dihydroxyvitamin D3 on the Expressions and Functions of Hepatic CYP and UGT Enzymes and Its Pharmacokinetic Consequences In Vivo” (Pharmaceutics, 2020).

Assays:
[1] = Pharmacokinetics of TOL and HTOL after intravenous TOL in rats; format: in vivo, rat; conditions: for Tmax: median (range); for Ae0-24h: urine 0-24 h; for Vd: read-out: Vss
Protocol: (§1) Male Sprague-Dawley (SD) rats (8 weeks, 260–280 g) were purchased from Nara Biotech Co. (Seoul, Korea). […] The dosing solution for the control group was prepared but the 1,25(OH)2D3 was omitted. […] On the fifth day, rats were used for pharmacokinetic study.
(§2) In vivo pharmacokinetic animal experiments were accomplished according to the Guide for the Care and Use of Laboratory Animals issued by the National Institute of Health, as described previously. […] After pretreatment with 1,25(OH)2D3 for 4 continuous days, the rats in the control and 1,25(OH)2D3 groups were anesthetized with Zoletil® (Vibrac, TX, USA) (10 mg/kg i.m.) and then the femoral vein and artery were cannulated with polyethylene tubing (Clay Adams, NJ, USA) for drug administration and blood sampling, respectively, as described previously. The pharmacokinetic experiment was initiated by drug administration after the rats were recovered from anesthesia. […] Approximately 100 μL of blood was collected via the femoral artery at 0, 1, 5, 15, 30, 60, 120, 180, 240, 360, 480, and 600 min after the drug administration. […] For compensation of fluid loss, a same volume of saline was intravenously provided after each sample collection. Plasma was then separated from whole blood cells and stored at −20 °C for further analysis. […] The collected urine samples were diluted with distilled deionized water (DDW) 20-fold prior to LC-MS/MS analysis. […] The weighted tissues were homogenized on ice by an electric homogenizer following adding 2-fold volume of PBS. The homogenates were stored before LC-MS/MS analysis.
(§3) Moreover, CLNR was calculated to subtract CLR from CL.

[2] = Tissue distribution of TOL and HTOL in rats; format: in vivo, rat; conditions: for Tissue to plasma concentration ratio (Kp), Liver: n = 4-6
Protocol: as §1, §2

[3] = Pharmacokinetics of BUP and HBUP after intravenous BUP in rats; format: in vivo, rat; conditions: for AUC: n = 6-7; for Tmax: median (range); for Ae0-24h: urine 0-24 h; for CL renal: plasma and urine; for Vd: read-out: Vss
Protocol: Male Sprague-Dawley (SD) rats (8 weeks, 260–280 g) were purchased from Nara Biotech Co. (Seoul, Korea). Animals were maintained in cages under controlled conditions under a 12-h dark/light cycle with free access to food and tap water, acclimated for at least five days in the laboratory before experiments, and allocated to a control group or 1,25(OH)2D3-treated group. The 1,25(OH)2D3 dosing solution was prepared by diluting 1,25(OH)2D3 in ethanol with 5 mL of corn oil (2.56 nmol/mL of final concentration). The dosing solution for the control group was prepared but the 1,25(OH)2D3 was omitted. The dosing solutions were administered intraperitoneally to rats at a dose of 1 mL/kg/day (2.56 nmol/kg/day as 1,25(OH)2D3) over four consecutive days. On the fifth day, rats were used for pharmacokinetic study.
In vivo pharmacokinetic animal experiments were accomplished according to the Guide for the Care and Use of Laboratory Animals issued by the National Institute of Health, as described previously. Before starting the animal studies, all experimental protocols were reviewed and approved by the Animal Care and Use Committee of Gachon University (Approval no. GIACUC-R2019020; approved on July 1st, 2019). SD male rats (8–9 weeks, 250–300 g, Nara Biotech Co., Seoul, South Korea) had free access to food and water, acclimatized and maintained in the room under a 12-h light/dark cycle for a week before the study. After pretreatment with 1,25(OH)2D3 for 4 continuous days, the rats in the control and 1,25(OH)2D3 groups were anesthetized with Zoletil® (Vibrac, TX, USA) (10 mg/kg i.m.) and then the femoral vein and artery were cannulated with polyethylene tubing (Clay Adams, NJ, USA) for drug administration and blood sampling, respectively, as described previously. The pharmacokinetic experiment was initiated by drug administration after the rats were recovered from anesthesia. […] Approximately 100 μL of blood was collected via the femoral artery at 0, 1, 5, 15, 30, 60, 120, 180, 240, 360, 480, and 600 min after the drug administration. […] Blood samples were collected at 0, 1, 5, 15, 30, 60, 90, 120, 180, 240, 360, and 480 min later and immediately centrifuged at 14,000× g for 15 min at 4 °C. For compensation of fluid loss, a same volume of saline was intravenously provided after each sample collection. Plasma was then separated from whole blood cells and stored at −20 °C for further analysis. Urine samples were collected 0–4, 4–8, and 8–24 h after drug administration. The collected urine samples were diluted with distilled deionized water (DDW) 20-fold prior to LC-MS/MS analysis. […] The weighted tissues were homogenized on ice by an electric homogenizer following adding 2-fold volume of PBS. The homogenates were stored before LC-MS/MS analysis.
as §3

[4] = molecular target: T1, Cyp2c11 (Rattus norvegicus, UniProt P08683); assay: Tolbutamide 4-hydroxylation (HTOL formation) in rat liver microsomes; conditions: for CLint: n = 3
T1 sequence (P08683 1-500): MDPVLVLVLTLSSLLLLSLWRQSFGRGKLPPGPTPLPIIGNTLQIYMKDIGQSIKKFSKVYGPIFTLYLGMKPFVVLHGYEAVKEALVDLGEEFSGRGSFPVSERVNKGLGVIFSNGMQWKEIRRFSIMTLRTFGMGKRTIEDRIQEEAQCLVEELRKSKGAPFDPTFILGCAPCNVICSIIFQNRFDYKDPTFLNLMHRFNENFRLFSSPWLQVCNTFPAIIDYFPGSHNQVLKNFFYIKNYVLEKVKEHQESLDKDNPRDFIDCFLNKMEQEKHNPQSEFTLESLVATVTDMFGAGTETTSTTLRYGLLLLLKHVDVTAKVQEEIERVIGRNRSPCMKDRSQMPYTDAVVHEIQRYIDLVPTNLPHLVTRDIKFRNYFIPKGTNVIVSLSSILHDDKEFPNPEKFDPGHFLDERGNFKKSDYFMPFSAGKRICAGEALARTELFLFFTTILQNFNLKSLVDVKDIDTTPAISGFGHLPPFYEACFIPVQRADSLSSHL

[5] = formed metabolite, i.v. 2 mg/kg TOL, 1,25(OH)2D3-treated rats
[6] = formed metabolite, i.v. 2 mg/kg TOL, control rats
[7] = i.v. 2 mg/kg TOL, 1,25(OH)2D3-treated rats
[8] = 8 h after i.v. 2 mg/kg TOL, 1,25(OH)2D3-treated rats
[9] = 8 h after i.v. 2 mg/kg TOL, control rats
[10] = i.v. 5 mg/kg BUP, 1,25(OH)2D3-treated rats
[11] = male, Sprague-Dawley, rat, plasma, iv, 2 mg/kg, i.v. 2 mg/kg TOL, 1,25(OH)2D3-treated rats
[12] = male, Sprague-Dawley, rat, plasma, iv, 2 mg/kg, i.v. 2 mg/kg TOL, control rats
[13] = male, Sprague-Dawley, rat, plasma, iv, 5 mg/kg, i.v. 5 mg/kg BUP, 1,25(OH)2D3-treated rats
[14] = male, Sprague-Dawley, rat, plasma, iv, 5 mg/kg, i.v. 5 mg/kg BUP, control rats

SMILES: CCCCNC(=O)NS(=O)(=O)c1ccc(CO)cc1 [HTOL, 4-hydroxytolbutamide]
- AUC [1, 5]: 151.9 ± 52.0 µg·min/mL
- CLR [1, 5]: 0.873 ± 0.134 mL/min/kg
- AUC [1, 6]: 100.8 ± 65.2 µg·min/mL
- CLR [1, 6]: 2.713 ± 0.570 mL/min/kg
- Cmax [1, 7]: 207 ± 119 ng/mL
- t1/2 [1, 7]: 10.5 ± 8.193 h
- Cmax ([1]; i.v. 2 mg/kg TOL, control rats): 167 ± 67 ng/mL
- t1/2 ([1]; i.v. 2 mg/kg TOL, control rats): 8.688 ± 8.317 h
- Tmax [1, 7]: 120 (60–240) min
- Tmax ([1]; i.v. 2 mg/kg TOL, control rats): 60 (15–120) min
- Ae0-24h [1, 7]: 5.539 ± 2.305 % of dose
- Ae0-24h ([1]; i.v. 2 mg/kg TOL, control rats): 9.356 ± 0.471 % of dose
- Tissue to plasma concentration ratio (Kp), Brain [2, 8]: 0.019 ± 0.004
- Tissue to plasma concentration ratio (Kp), Heart [2, 8]: 0.252 ± 0.036
- Tissue to plasma concentration ratio (Kp), Kidney [2, 8]: 7.768 ± 0.014
- Tissue to plasma concentration ratio (Kp), Spleen [2, 8]: 0.163 ± 0.008
- Tissue to plasma concentration ratio (Kp), Liver [2, 8]: 0.657 ± 0.129
- Tissue to plasma concentration ratio (Kp), Brain [2, 9]: 0.020 ± 0.008
- Tissue to plasma concentration ratio (Kp), Heart [2, 9]: 0.175 ± 0.013
- Tissue to plasma concentration ratio (Kp), Kidney [2, 9]: 5.335 ± 1.127
- Tissue to plasma concentration ratio (Kp), Spleen [2, 9]: 0.137 ± 0.010
- Tissue to plasma concentration ratio (Kp), Liver [2, 9]: 0.831 ± 0.152

SMILES: C[C@H]1NC(C)(C)CO[C@]1(O)c1cccc(Cl)c1 [HBUP, hydroxybupropion]
- CLR [3, 10]: 0.077 ± 0.031 mL/min/kg
- Cmax [3, 10]: 68 ± 21 ng/mL
- t1/2 [3, 10]: 3.283 ± 0.903 h
- AUC [3, 10]: 19.77 ± 9.04 µg·min/mL
- CLR ([3]; i.v. 5 mg/kg BUP, control rats): 0.222 ± 0.124 mL/min/kg
- Cmax ([3]; i.v. 5 mg/kg BUP, control rats): 46 ± 32 ng/mL
- t1/2 ([3]; i.v. 5 mg/kg BUP, control rats): 2.673 ± 0.627 h
- AUC ([3]; i.v. 5 mg/kg BUP, control rats): 4.610 ± 1.898 µg·min/mL
- Tmax [3, 10]: 15 (15–60) min
- Tmax ([3]; i.v. 5 mg/kg BUP, control rats): 15 min
- Ae0-24h [3, 10]: 0.026 ± 0.008 % of dose
- Ae0-24h ([3]; i.v. 5 mg/kg BUP, control rats): 0.015 ± 0.007 % of dose

SMILES: CCCCNC(=O)NS(=O)(=O)c1ccc(C)cc1 [TOL, tolbutamide]
- CLNR [1, 7]: 0.206 ± 0.045 mL/min/kg
- CLNR ([1]; i.v. 2 mg/kg TOL, control rats): 0.189 ± 0.030 mL/min/kg
- clearance [1, 11]: 0.206 ± 0.045 mL/min/kg
- half-life [1, 11]: 9.4 ± 3.46 h
- AUC ([1]; male, Sprague-Dawley, rat, plasma, iv, 2 mg/kg, i.v. 2 mg/kg TOL, 1,25(OH)2D3-treated rats, n = 9-10, read-out: AUC (converted)): 10200 µg·min/mL
- Vd [1, 11]: 0.153 ± 0.0195 L/kg
- MRT [1, 12]: 11 h
- clearance [1, 12]: 0.189 ± 0.027 mL/min/kg
- half-life [1, 12]: 7.71 ± 2.56 h
- AUC ([1]; male, Sprague-Dawley, rat, plasma, iv, 2 mg/kg, i.v. 2 mg/kg TOL, control rats, n = 9-10, read-out: AUC (converted)): 10800 µg·min/mL
- Vd [1, 12]: 0.12 ± 0.0156 L/kg
- CL renal ([1]; male, Sprague-Dawley, rat, urine and plasma, iv, 2 mg/kg): 0.000208 ± 0.000103 mL/min/kg
- Ae0-24h [1, 7]: 0.024 ± 0.016 % of dose
- Ae0-24h ([1]; i.v. 2 mg/kg TOL, control rats): 0.124 ± 0.059 % of dose
- CLint ([4]; RLMs from 1,25(OH)2D3-treated rats): 0.89 ± 0.18 μL/min/mg protein
- CLint ([4]; RLMs from control rats): 3.00 ± 0.63 μL/min/mg protein
- CLint lower in 1,25(OH)2D3-treated rats than in controls ([4]; RLMs, p = 0.0051): 70%

SMILES: CC(NC(C)(C)C)C(=O)c1cccc(Cl)c1 (stereo not drawn) [BUP, bupropion]
- Renal clearance as portion of total clearance ([3]; 1,25(OH)2D3-treated rats): 1.92%
- Renal clearance as portion of total clearance ([3]; control rats): 0.7%
- CLNR [3, 10]: 53.55 ± 13.02 mL/min/kg
- CLNR ([3]; i.v. 5 mg/kg BUP, control rats): 93.08 ± 13.73 mL/min/kg
- CL renal ([3]; male, Sprague-Dawley, rat, iv, 5 mg/kg, i.v. 5 mg/kg BUP, 1,25(OH)2D3-treated rats): 1.05 ± 0.407 mL/min/kg
- CL renal ([3]; male, Sprague-Dawley, rat, iv, 5 mg/kg, i.v. 5 mg/kg BUP, control rats): 0.662 ± 0.635 mL/min/kg
- MRT [3, 13]: 1.47 h
- clearance [3, 13]: 54.6 ± 13.4 mL/min/kg
- half-life [3, 13]: 2.24 ± 0.812 h
- AUC ([3]; male, Sprague-Dawley, rat, plasma, iv, 5 mg/kg, i.v. 5 mg/kg BUP, 1,25(OH)2D3-treated rats, read-out: AUC (converted)): 96.3 µg·min/mL
- Vd [3, 13]: 5.4 ± 1.87 L/kg
- MRT [3, 14]: 1.19 h
- clearance [3, 14]: 93.6 ± 14.2 mL/min/kg
- half-life [3, 14]: 2.59 ± 0.432 h
- AUC ([3]; male, Sprague-Dawley, rat, plasma, iv, 5 mg/kg, i.v. 5 mg/kg BUP, control rats, read-out: AUC (converted)): 54.4 µg·min/mL
- Vd [3, 14]: 7.82 ± 1.95 L/kg
- Ae0-24h [3, 10]: 1.791 ± 0.031 % of dose
- Ae0-24h ([3]; i.v. 5 mg/kg BUP, control rats): 0.719 ± 0.613 % of dose
